Experimental data as given in ChEMBL document CHEMBL5321237 (Eur J Med Chem, 2023).
In brackets after ≈: the same amount, converted by molar mass.

How the values were obtained:
[1] = target: T1, Macrophage colony-stimulating factor 1 receptor (Mus musculus, UniProt P09581); assay: Inhibition of CSF1-induced CSF1R signalling in mouse BMDM cells assessed as reduction in ERK1/2 phosphorylation preincubated for 30 mins followed by CSF1 addition and measured after 10 mins; assay type: cell-based
T1 sequence (P09581 whole entry): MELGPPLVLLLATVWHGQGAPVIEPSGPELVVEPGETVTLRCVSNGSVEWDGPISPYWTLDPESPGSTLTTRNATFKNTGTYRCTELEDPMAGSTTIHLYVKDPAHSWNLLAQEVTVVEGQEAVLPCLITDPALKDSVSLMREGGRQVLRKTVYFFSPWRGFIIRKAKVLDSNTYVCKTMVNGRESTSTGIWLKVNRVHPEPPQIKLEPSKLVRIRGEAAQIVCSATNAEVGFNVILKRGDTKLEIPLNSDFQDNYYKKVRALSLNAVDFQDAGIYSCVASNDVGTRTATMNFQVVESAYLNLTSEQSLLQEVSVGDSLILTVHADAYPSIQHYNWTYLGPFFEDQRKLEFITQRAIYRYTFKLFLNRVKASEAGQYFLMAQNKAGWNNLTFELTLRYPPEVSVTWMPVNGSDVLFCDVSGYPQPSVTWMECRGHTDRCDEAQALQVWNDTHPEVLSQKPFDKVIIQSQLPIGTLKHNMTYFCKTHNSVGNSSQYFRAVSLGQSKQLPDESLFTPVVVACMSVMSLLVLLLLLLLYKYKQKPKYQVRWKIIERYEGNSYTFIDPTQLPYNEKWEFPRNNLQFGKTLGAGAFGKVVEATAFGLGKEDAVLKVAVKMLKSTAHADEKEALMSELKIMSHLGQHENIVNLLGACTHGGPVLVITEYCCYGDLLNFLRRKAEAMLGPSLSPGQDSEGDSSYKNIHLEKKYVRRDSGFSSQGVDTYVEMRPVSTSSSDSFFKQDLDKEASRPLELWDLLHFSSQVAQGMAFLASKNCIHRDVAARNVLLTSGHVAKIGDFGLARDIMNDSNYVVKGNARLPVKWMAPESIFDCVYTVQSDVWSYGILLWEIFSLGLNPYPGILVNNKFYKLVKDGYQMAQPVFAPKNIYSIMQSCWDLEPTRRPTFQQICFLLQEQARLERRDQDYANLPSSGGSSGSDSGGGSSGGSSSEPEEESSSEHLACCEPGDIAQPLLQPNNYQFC

[2] = target: T2, Macrophage colony-stimulating factor 1 receptor (Mus musculus) (UniProt P09581); assay: Inhibition of CSF1-induced CSF1R signalling in mouse BMDM cells assessed as reduction in ERK1/2 phosphorylation by measuring fold change preincubated for 30 mins followed by CSF1 addition and measured after 10 mins relative to pexidartinib; assay type: cell-based; conditions: time 40.0 min
T2 sequence (whole entry): T1 sequence (P09581 whole entry)

[3] = tested on: T3, Receptor-type tyrosine-protein kinase FLT3 (Homo sapiens), P36888 [D835V]; assay: Competitive binding affinity to human FLT3 D835V mutant at 500 nM incubated for 1 hr by qPCR analysis relative to control
T3 sequence (whole entry): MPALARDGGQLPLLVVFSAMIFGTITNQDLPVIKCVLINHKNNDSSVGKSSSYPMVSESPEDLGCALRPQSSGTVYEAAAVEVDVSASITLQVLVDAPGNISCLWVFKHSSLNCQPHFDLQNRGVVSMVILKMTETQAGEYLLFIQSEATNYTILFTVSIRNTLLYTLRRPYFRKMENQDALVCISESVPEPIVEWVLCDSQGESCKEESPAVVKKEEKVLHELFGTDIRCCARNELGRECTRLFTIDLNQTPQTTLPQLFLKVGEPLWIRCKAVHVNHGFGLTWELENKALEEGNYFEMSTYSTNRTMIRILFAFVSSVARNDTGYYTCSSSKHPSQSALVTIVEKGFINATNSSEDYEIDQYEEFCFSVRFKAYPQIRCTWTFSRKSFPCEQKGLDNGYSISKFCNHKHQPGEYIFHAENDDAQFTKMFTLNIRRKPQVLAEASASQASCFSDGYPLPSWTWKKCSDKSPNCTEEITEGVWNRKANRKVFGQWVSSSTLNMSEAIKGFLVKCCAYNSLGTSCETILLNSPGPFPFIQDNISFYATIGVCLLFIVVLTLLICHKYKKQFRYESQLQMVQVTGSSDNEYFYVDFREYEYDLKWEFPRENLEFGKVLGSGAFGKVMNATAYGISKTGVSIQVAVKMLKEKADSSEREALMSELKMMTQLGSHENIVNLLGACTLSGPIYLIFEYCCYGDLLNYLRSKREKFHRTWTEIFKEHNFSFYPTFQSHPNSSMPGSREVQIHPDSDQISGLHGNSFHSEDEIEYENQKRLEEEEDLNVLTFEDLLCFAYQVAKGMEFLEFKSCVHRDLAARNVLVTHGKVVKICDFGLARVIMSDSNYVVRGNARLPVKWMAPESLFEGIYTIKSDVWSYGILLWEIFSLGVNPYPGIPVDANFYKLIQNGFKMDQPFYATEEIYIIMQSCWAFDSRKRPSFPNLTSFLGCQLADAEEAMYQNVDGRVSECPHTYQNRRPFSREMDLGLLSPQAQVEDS

[4] = Metabolic stability in human liver microsomes assessed as intrinsic clearance at 3 uM measured upto 50 mins by LC-MS analysis; assay type: ADME, Microsome
[5] = Kinetic aqueous solubility of compound at pH 7.4 at 500 uM incubated for 90 mins by spectrophotometry analysis; assay type: physicochemical; conditions: buffer, read-out: Kinetic_solubility
[6] = target: Receptor-type tyrosine-protein kinase FLT3 (Homo sapiens) (UniProt P36888); assay: Inhibition of autoinhibited human FLT3 binding to streptavidin-coated magnetic beads immobilized biotinylated ligand at 500 nM incubated for 1 hr by qPCR analysis relative to control
[7] = Metabolic stability in mouse liver microsomes assessed as intrinsic clearance at 3 uM measured upto 50 mins by LC-MS analysis; assay type: ADME, Microsome
[8] = target: T4, Macrophage colony-stimulating factor 1 receptor (Homo sapiens, UniProt P07333); assay: Binding affinity to autoinhibited form of CSF1R (unknown origin) assessed as dissociation constant incubated for 1 hr by qPCR based Hill equation analysis
[9] = tested on: Tyrosine-protein kinase ABL1 (Homo sapiens), P00519 [H396P]; assay: Competitive binding affinity to human ABL1 H396P mutant at 500 nM incubated for 1 hr by qPCR analysis relative to control
[10] = target: Platelet-derived growth factor receptor beta (Homo sapiens) (UniProt P09619); assay: Inhibition of human PDGFRbeta binding to streptavidin-coated magnetic beads immobilized biotinylated ligand at 500 nM incubated for 1 hr by qPCR analysis relative to control
[11] = target: T4, Macrophage colony-stimulating factor 1 receptor; assay: Inhibition of CSF1R (unknown origin) using FRET-peptide as substrate incubated in presence of ATP by FRET based Z-LYTE assay
[12] = target: Mast/stem cell growth factor receptor Kit (Homo sapiens) (UniProt P10721); assay: Inhibition of autoinhibited wild type human KIT binding to streptavidin-coated magnetic beads immobilized biotinylated ligand at 500 nM incubated for 1 hr by qPCR analysis relative to control
Mast/stem cell growth factor receptor Kit (Homo sapiens), sequence (P10721 whole entry): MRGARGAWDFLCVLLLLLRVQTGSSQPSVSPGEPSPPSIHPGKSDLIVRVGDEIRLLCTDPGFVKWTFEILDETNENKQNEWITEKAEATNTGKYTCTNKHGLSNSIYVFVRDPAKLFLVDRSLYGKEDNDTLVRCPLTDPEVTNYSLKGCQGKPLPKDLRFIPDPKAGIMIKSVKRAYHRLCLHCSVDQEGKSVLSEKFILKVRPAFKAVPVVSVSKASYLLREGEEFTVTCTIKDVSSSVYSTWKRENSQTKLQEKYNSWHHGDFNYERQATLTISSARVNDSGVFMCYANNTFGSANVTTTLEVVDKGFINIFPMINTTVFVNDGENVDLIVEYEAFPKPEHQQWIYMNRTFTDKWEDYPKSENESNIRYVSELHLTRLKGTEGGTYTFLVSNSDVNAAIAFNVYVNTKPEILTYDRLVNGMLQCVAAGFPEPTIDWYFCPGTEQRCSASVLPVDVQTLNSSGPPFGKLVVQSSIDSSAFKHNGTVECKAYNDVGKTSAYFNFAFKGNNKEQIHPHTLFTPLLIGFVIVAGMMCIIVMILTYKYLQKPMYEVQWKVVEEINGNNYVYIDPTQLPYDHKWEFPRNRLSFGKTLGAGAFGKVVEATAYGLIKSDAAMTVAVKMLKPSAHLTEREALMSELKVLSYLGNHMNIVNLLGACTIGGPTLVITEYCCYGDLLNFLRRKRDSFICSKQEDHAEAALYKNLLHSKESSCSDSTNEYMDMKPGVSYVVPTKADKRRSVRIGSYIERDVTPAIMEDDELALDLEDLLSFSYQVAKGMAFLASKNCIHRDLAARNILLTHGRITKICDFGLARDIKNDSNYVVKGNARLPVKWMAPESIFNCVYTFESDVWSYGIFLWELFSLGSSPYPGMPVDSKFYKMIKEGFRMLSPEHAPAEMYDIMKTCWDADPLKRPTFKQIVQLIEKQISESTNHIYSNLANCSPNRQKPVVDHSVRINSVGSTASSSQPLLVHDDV

T4 sequence (P07333 whole entry): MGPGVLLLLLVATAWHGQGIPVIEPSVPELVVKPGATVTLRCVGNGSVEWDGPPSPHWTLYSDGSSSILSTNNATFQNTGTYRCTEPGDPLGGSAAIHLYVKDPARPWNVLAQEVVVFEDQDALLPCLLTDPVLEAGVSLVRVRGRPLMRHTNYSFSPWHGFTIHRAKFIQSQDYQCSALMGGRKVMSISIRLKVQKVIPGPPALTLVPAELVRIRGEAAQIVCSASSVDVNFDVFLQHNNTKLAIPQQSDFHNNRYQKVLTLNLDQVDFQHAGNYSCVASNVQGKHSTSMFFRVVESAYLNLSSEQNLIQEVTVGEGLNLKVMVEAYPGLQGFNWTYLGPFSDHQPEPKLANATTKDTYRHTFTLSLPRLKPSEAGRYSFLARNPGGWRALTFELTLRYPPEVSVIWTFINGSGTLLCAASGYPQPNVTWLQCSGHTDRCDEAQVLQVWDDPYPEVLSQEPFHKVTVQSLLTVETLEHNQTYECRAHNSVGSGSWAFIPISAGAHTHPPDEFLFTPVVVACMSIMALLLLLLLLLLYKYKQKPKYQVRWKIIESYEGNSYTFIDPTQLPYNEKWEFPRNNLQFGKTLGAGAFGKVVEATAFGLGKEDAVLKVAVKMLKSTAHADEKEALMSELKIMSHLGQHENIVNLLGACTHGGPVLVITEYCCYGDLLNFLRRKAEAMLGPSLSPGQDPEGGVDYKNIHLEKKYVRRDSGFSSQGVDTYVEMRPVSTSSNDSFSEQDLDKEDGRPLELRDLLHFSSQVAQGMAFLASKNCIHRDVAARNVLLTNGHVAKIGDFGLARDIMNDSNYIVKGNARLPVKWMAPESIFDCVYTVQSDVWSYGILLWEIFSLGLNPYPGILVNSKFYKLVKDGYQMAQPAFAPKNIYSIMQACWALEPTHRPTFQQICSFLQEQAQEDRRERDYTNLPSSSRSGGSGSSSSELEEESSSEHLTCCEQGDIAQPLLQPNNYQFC
Platelet-derived growth factor receptor beta (Homo sapiens), sequence (P09619 whole entry): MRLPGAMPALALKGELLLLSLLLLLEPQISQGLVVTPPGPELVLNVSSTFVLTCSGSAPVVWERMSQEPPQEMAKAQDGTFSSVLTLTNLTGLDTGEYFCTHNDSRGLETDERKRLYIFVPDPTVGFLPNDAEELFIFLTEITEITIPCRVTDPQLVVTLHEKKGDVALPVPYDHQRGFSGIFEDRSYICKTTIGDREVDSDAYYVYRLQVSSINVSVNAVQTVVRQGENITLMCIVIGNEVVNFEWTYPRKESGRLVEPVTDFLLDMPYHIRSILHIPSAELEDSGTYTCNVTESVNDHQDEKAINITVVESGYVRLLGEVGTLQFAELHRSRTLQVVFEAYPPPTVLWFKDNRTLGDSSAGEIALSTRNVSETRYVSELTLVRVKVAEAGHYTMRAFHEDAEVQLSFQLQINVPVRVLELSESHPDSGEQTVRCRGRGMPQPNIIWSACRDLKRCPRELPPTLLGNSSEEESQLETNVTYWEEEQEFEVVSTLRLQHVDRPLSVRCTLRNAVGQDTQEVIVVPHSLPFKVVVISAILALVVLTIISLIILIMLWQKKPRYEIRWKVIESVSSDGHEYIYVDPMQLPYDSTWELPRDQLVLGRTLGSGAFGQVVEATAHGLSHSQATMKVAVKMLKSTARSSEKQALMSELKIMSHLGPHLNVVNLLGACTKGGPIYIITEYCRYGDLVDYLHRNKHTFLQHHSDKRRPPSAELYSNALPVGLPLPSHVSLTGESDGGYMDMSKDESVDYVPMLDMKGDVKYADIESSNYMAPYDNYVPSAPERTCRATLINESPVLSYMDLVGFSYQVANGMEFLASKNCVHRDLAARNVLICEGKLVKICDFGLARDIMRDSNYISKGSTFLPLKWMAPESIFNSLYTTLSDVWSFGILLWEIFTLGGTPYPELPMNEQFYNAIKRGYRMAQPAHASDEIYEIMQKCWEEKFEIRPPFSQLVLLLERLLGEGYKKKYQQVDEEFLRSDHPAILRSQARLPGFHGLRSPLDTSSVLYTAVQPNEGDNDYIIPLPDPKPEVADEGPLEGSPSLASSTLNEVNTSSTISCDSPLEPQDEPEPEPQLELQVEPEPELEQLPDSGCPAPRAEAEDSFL

IC50 [1]: 40 nM
fold change (FC) [2]: 0.4
Activity [3]: 92%
CLint [4]: 36.4 µL/min/mg
solubility kinetic at […], 500 µM [5]: 3.5 µM (≈ 1.18 µg/mL)
inhibition [6]: 12%
CLint [7]: 243 µL/min/mg
Kd [8]: 17 nM
Activity [9]: 96%
inhibition [10]: 12%
IC50 [11]: 0.5 nM
inhibition [12]: 12%
Structure (SMILES): CN(CC1CCCC1)c1ncnc2[nH]c(-c3ccc(CO)cc3)nc12
